Measurements from US20080102111A1, “Anticancer Composition for Oral Use Comprising Liposome Containing Phytosterols and Prevention or Treatment for Cancer Using the Liposome” (priority 2005, published 2008).

Test system: B16BL6 melanoma cells
Experiment: Metastasis-inhibiting activity in B16BL6 melanoma cells by the liposome compositions (lung colony count)
Assay type: in vivo, C57BL6/J mice
Conditions: lung surface colonies on 21st day; 0.2 mL oral once per day up to 6th day; B16BL6 cells i.v. 3×10^4/animal on 7th day
Procedure: Twenty 5-week old C57BL6/J mice were divided into four groups. The control group received 0.2 mL phosphate-buffered physiological saline (PBS) once per day by forced oral administration up to and including the 6th day of keeping. In like manner, the liposome composition of Example 1 was orally administered instead of the PBS to the group designated as the liposomized β-sitosterol group; an aqueous suspension of ordinary, unliposomized β-sitosterol (contained the same amount of β-sitosterol as the liposomized β-sitosterol administered to the liposomized β-sitosterol group) was orally administered instead of the PBS to the group designated as the β-sitosterol group; and the liposome composition of Comparative Example 1 was orally administered instead of the PBS to the group designated as the liposomized cholesterol group. B16BL6 melanoma cells suspended in serum-free medium were administered intravenously (3×10^4/0.2 ml/animal) on the 7th day of keeping. The mice were dissected on the 21st day of keeping and the lungs were extirpated; the lung surfaces were inspected and the number of colonies was counted.

SMILES: CC[C@H](CC[C@@H](C)[C@H]1CC[C@H]2[C@@H]3CC=C4C[C@@H](O)CC[C@]4(C)[C@H]3CC[C@]12C)C(C)C [β-Sitosterol, β-sitosterol]
- Average number of colonies: 43
